Assay results from patent publication US20060116318A1, “Preptin methods of use” (priority 2002, published 2006).
“Also recorded” adds a separate entry of the source. Like-named read-outs stand apart in the source and are kept apart here.

Legend:
[1] = system: primary fetal rat osteoblasts; assay: Proliferation (cell number, [3H]-thymidine incorporation) of fetal rat osteoblast-like cells; type: cell-based
Method: Osteoblast-Like Cell Culture. Osteoblasts were isolated from 20 day fetal rat calvariae as previously described (Cornish et al. (1999) American Journal of Physiology Endocrinology & Metabolism 277: E779-E783). Briefly, calvariae were excised and the frontal and parietal bones, free of suture and periosteal tissue, were collected. The calvariae were sequentially digested using collagenase and the cells from digests 3 and 4 were collected, pooled and washed. Cells were grown to confluence and then subcultured into 24 well plates. Cells were growth arrested in minimum essential medium (MEM)/0.1% bovine serum albumin for 24 h. Fresh media and experimental compounds were added for a further 24 h. Cells were pulsed with tritiated-thymidine two hours before the end of the experimental incubation. The effect of preptin on proliferation of fetal rat osteoblast-like cells was first assessed by the measurement of cell numbers. The effect of preptin on DNA synthesis in osteoblasts was then assessed by the measurement of [^3H]-thymidine incorporation into isolated fetal rat osteoblast-like cells. There were 6 wells in each group and each experiment was repeated 3 or 4 times.

[2] = system: murine bone marrow cultures; assay: Osteoclastogenesis assay in murine bone marrow cultures (TRAP-positive multinucleated cells); type: cell-based, mouse; conditions: various concentrations; 7 days; with 1α,25-dihydroxyvitamin D3; FIG. 4
Method: The effects of preptin on the development of osteoclasts was also examined. To assess osteoclast development, bone marrow is obtained from the long bones of normal mice, aged 4-6 weeks and cultured. Non-adherent cells are removed and the cultures are grown in the presence of 1α,25-dihydroxyvitamin D3 throughout the experiment. The cultures were maintained for 7 days and the number of tartrate-resistant acid phosphatase-positive multinucleated cells was assessed. An osteoclastogenesis assay was performed with murine bone marrow cultures in the presence of various concentrations of rat preptin. The number of tartrate-resistant acid phosphatase (TRAP)-positive multinucleated cells was assessed (FIG. 4).

[3] = system: murine neonatal calvarial organ culture; assay: Thymidine incorporation in murine neonatal calvarial organ culture; type: cell-based, mouse; conditions: FIG. 3 (rat preptin, two concentrations)
[4] = system: murine neonatal calavarial organ culture system; assay: Bone resorption in murine neonatal calvarial organ culture; type: cell-based, mouse; conditions: data not shown
primary rat osteoblasts = assay: TUNEL assay of apoptosis in serum-deprived primary rat osteoblasts; type: cell-based; conditions: 10^−8 M; apoptosis induced by serum deprivation; 18 h; FIG. 6
Method: Immunoblotting (Cell Signalling Methods). Primary rat osteoblasts prepared as described above were seeded in 6-well tissue culture plates at an initial density of 5×10^4 cells/mL in MEM 5% FCS, and grown to 80-90% confluence. After serum starvation overnight, cells were treated at room temperature with test substances in MEM 0.1% BSA. In experiments designed to determine the effect of inhibitors of signal transduction on preptin-induced p42/44 MAP kinase phosphorylation, the cells were pre-treated with the inhibitor for 30 min prior to addition of test substances. The exception was pertussis toxin, which was added 18 h prior to test substances. […] The lysates were briefly vortexed, clarified by centrifugation at 13,000 rpm at 4° C., then stored at −70° C. until analyzed. Protein content of the cell lysates was measured using the DC protein assay (BioRad, Hercules, Calif.). […] Incubation with the HRP-conjugated secondary antibody was for 1 h at room temperature, and the membranes were analyzed by ECL. […] Apoptosis in cultures of primary rat osteoblasts was assessed using the TUNEL method (DeadEnd™, Promega, Madison, Wis.) according to the manufacturer's instructions. […] After counterstaining with hematoxylin, the number of apoptotic nuclei per microscopic field was counted and expressed as a proportion of that observed in the cells exposed to serum starvation throughout the entire treatment period. […]

[5] = system: long-term osteoblast cultures; assay: Osteoblast differentiation, mineralized bone nodules in long-term osteoblast cultures; type: cell-based; conditions: 10^−8M
[6] = system: sexually mature male mice; assay: Local subcutaneous injection over the hemicalvaria, histomorphometry; type: in vivo; conditions: for Bone Area, Mean ± Std Error: twice daily s.c. over right hemicalvaria; for Bone Area, Mean ± Std Error / % Mineralizing Surface/Total Bone Surface, Mean ± Std Error: 5 days; for % Mineralizing Surface/Total Bone Surface, Mean ± Std Error: twice daily s.c.
Method: Three groups of sexually mature male mice were given twice daily subcutaneous injections over the right hemicalvaria for 5 consecutive days. Two groups received one of 2 doses of preptin (0.825 μg or 8.25 μg per injection), and a further […] received vehicle. The animals were sacrificed 1 week following the last injection. Fluorochrome labels were injected subcutaneously at the base of the tail on days 1 (calcein), 5 (alizarin red) and 14 (calcein) to measure dynamic histomorphometric indices (such as, extent of mineralizing surface). Calvariae were excised, fixed in 10% neutral-buffered formalin, dehydrated and embedded in methylmethacrylate resin. Sections were cut, mounted on gelatin-coated slides, and histomorphometric indices measured using image analysis.

[7] = system: isolated, perfused rat pancreas; conditions: infusion into isolated, Buchanan et al. 2001; cited from earlier work
[8] = primary osteoblasts pre-treated with inhibitor, FIG. 5A, 5B
[9] = high dose, 16.5 micrograms daily for five days, local s.c. injection

## COc1cccc(-c2cc(=O)c3ccccc3o2)c1N [PD-98059]
[1]; [8]
  effect of inhibitor pre-treatment on the proliferative effects of preptin: blocked

## N#CC(=C(/N)Sc1ccccc1N)/C(C#N)=C(\N)Sc1ccccc1N [U-0126]
[1]
  effect of inhibitor pre-treatment on the proliferative effects of preptin: blocked

## DVSTSQAVLPDDFPRYPVGKFFKFDTWRQSAGRL (Rattus) [rat preptin]
[2]
  osteoclast development (number of TRAP-positive multinucleated cells): did not affect osteoclast development

## pertussis toxin
[1]; [8]
  effect of inhibitor pre-treatment on the proliferative effects of preptin: blocked

## preptin: 34-amino acid peptide corresponding to Asp69-Leu102 of proinsulin-like growth factor II; species form not always stated
[1]; dose-dependent, primary fetal rat osteoblasts and osteoblast-like cell lines, 24 h, FIGS. 1 and 2 (rat and human preptin)
  concentrations stimulating proliferation (cell number and DNA synthesis): > 10^−11 M
[3]
  thymidine incorporation: stimulated
[4]
  bone resorption: did not affect bone resorption
Primary rat osteoblasts
  apoptosis, treatment/control ratio: 0.78±0.08
[5]
  osteoblast differentiation, number of mineralized bone nodules: significantly increasing the number of mineralized bone nodules
[6]; high dose (8.25 μg per injection), P = 0.013 vs control 1.028 ± 0.023
  Bone Area, Mean ± Std Error: *1.084 ± 0.017
[6]; high dose (8.25 μg per injection), P = 0.046 vs control 1.048 ± 0.013
  % Mineralizing Surface/Total Bone Surface, Mean ± Std Error: *1.119 ± 0.032%
[6]; [9]
  bone area compared to control (in words): significant increase; also recorded: increased
  mineralizing surface compared to control (in words): significant increase; also recorded: increased
[6]; low dose (0.825 μg per injection), control 1.028 ± 0.023
  Bone Area, Mean ± Std Error: 1.083 ± 0.027
[6]; low dose (0.825 μg per injection), control 1.048 ± 0.013
  % Mineralizing Surface/Total Bone Surface, Mean ± Std Error: 1.065 ± 0.033%
[7]
  second phase of insulin secretion: significant increase
